# Source: US11020372B2, “Dietary and natural product management of negative side effects of cancer treatment” (UNIVERSITY OF FLORIDA RESEARCH FOUNDATION, INC., priority 2015, dated 2021)
# Tests used:
# Animals [1] = assay: Chemotherapy-induced anemia (CBC: red blood cells, hematocrit, hemoglobin); settings: for anemia: level of red blood cell count, hemoglobin and hematocrit, chemotherapy agent alone: 20 mg/kg TMZ, 100 mg/kg 5-FU, 40 mg/kg oxaliplatin, two to four weeks; for hemoglobin level, chemotherapeutic agent alone: 100 mg/kg 5-FU or 40 mg/kg oxaliplatin
# Method: Animals were treated with three different chemotherapy agents inducing anemia (20 mg/kg TMZ, 100 mg/kg 5-FU, 40 mg/kg oxaliplatin). After two to four weeks of treatments blood was collected via retro-orbital puncture from the different experimental groups. Blood samples were processed for CBC.
# Animals [2] = assay: Chemotherapy-induced leukopenia (CBC: white blood cells, neutrophils); assay type: in vivo; settings: 20 mg/kg TMZ, 100 mg/kg 5-FU; two weeks
# Method: Animals were treated with different chemotherapy agents inducing leukopenia (20 mg/kg TMZ, 100 mg/kg 5-FU). […] Blood samples were processed for CBC.
# neural stem cells [3] = assay: Neurosphere assay of periventricular cells from treated animals; assay type: in vivo, Mice; settings: TMZ [20 mg/kg] or 5-FU [100 mg/kg] for two weeks
# Method: A] Periventricular cells from the brains of animals treated with the indicated treatments were isolated and cultured in the neurosphere assay at clonal density to quantify clonogenic frequency. […] Chemotherapies induced a decline of neural stem cell activity seen by decreased neurosphere formation, which can be improved when combined with our treatment, **, ***, p<0.01, p<0.001, one-way ANOVA. B-C] […] D-E] NSC activity was also measured in the hippocampus, region of the brain involved in cognition.
# Mice were fed with control diet or MCT/LC/Curcumin/EGCG/SFN diet. Each dietary group was treated with TMZ [20 mg/kg] or 5-FU [100 mg/kg] for two weeks, after which point brains were harvested and the cells from the periventricular region were cultured at clonal density in the neurosphere assay during one passage (7-14 days) to quantify the sphere forming frequency indicating neural stem cells occurrence in the brains of animals treated with the different treatments.
# neural stem cells [4] = assay: BrdU immunoreactivity of neural stem cells in sub-ventricular area and hippocampus; assay type: in vivo, Mice
# Method: A] Periventricular cells from the brains of animals treated with the indicated treatments were isolated and cultured in the neurosphere assay at clonal density to quantify clonogenic frequency. […] B-C] […] D-E] NSC activity was also measured in the hippocampus, region of the brain involved in cognition.
# A cohort of animals received three injections of BrdU [50 mg/kg] over a 72-hour time period before to be euthanized. Brains were removed, fixed, sectioned and BrdU antibodies used to identify cells that were in S-phase during the 72 hour injection period.
# Mice [5] = assay: Paclitaxel-induced nephrotoxicity and hepatotoxicity (kidney and liver mass); assay type: in vivo; settings: Paclitaxel [5 mg/kg], 3-4 weeks of treatment
# Method: Targeted toxicity of the chemotherapeutic agent Paclitaxel was assessed after 3-4 weeks of treatment via measuring the mass of the kidneys.
# Toxicity was assessed after 3-4 weeks of treatment via comparing the mass of the liver.
# After four weeks of treatments, the organs were harvested and their mass determined.
# [6] = tested on: patients with type 2 diabetes; settings: provided by oral intake of 68 grams of broccoli sprouts; cited from earlier work
# [7] = in vivo; cited from earlier work
# neonatal rat = settings: cited from earlier work
# [8] = tested on: rats, guinea pigs and monkeys; settings: cited from earlier work
# healthy subjects = settings: 5000 to 12,000 mg/day; cited from earlier work
# Mice [9] = assay: Von Frey test of mechanosensitivity (chemotherapy-induced peripheral neuropathy); settings: Von Frey filament 4 g; cumulative 25 mg/kg Paclitaxel, 40 mg/kg Oxaliplatin
# Method: Mechanosensitivity was compared between the different experimental groups. Von Frey test filament (4 g) was pressed to the plantar surface of the hindpaw until the filament just bent.
# Animals were also tested for neuropathic pain using the Von Frey Test where the sensitivity of the animals to mechanical stimulus is measured. Similar to the cold allodynia assay, the animals were tested after cumulative doses of 25 mg/kg paclitaxel and 40 mg/kg oxaliplatin. Von Frey test filament (4 g) was pressed to the plantar surface of the hindpaw until the filament just bent. The percent positive response (i.e. paw withdrawal) was recorded.
# rodents = settings: oral doses as high as 500 mg/kg in rodents; cited from earlier work
# dogs = settings: 500 mg/kg/day, divided dosage, pre-fed dogs, 13 weeks; cited from earlier work
# [10] = neonatal rat hypoxic-ischemic injury
molecule,measurement,setting,value
"O=c1[nH]cc(F)c(=O)[nH]1 [5-FU, Fluorouracil]","anemia: level of red blood cell count, hemoglobin and hematocrit, chemotherapy agent alone",Animals [1],induced anemia
same,"hemoglobin level, chemotherapeutic agent alone",Animals [1],significantly diminished
same,"leukopenia: level of white blood cell and neutrophil count, chemotherapy agent alone",Animals [2],induced leukopenia
same,"sphere forming cells, chemotherapy agent alone",neural stem cells [3],decreased number of sphere forming cells
same,"NSC activity (BrdU immunoreactivity) in the sub-ventricular area (SVZ), single treatment versus control",neural stem cells [4]; diet alone or 5-FU alone,reduced level of BrdU+ve cells
same,number of BrdU-immunoreactive proliferating neural stem cells relative to controls,"neural stem cells [4]; subventricular area and hippocampus, three BrdU injections [50 mg/kg] over 72 hours",less number of proliferating neural stem cells
CC(=O)O[C@H]1C(=O)[C@@]2(C)[C@H]([C@H](OC(=O)c3ccccc3)[C@]3(O)C[C@H](OC(=O)[C@H](O)[C@@H](NC(=O)c4ccccc4)c4ccccc4)C(C)=C1C3(C)C)[C@]1(OC(C)=O)CO[C@@H]1C[C@@H]2O [Paclitaxel],"mass of the kidneys, drug alone",Mice [5],significant diminution of the kidney weight
same,"mass of the liver, drug alone",Mice [5],significant liver enlargement
"C[S+]([O-])CCCCN=C=S (centres unmarked) [SFN, sulforaphane]",safe non-toxic dose,[6],100 mg
same,elimination,[7],long terminal elimination phase
same,time to peak plasma levels,[7],≤ 2 h
same,infarct ratio,neonatal rat; 24 hours after hypoxic ischemia,reduced infarct ratio
same,expression of the Nrf2 antioxidative transcription factor in the brain,neonatal rat; [10],increased the expression of the Nrf2
same,number of apoptotic cells,neonatal rat; [10],significantly decreased the number of apoptotic cells
"Cn1nnc2c(C(N)=O)ncn2c1=O [TMZ, Temozolomide]","leukopenia: level of white blood cell and neutrophil count, chemotherapy agent alone",Animals [2],induced leukopenia
same,"sphere forming cells, chemotherapy agent alone",neural stem cells [3],decreased number of sphere forming cells
"COc1cc(/C=C/C(=O)CC(=O)/C=C/c2ccc(O)c(OC)c2)ccc1O [curcumin, Curcumin]",toxicity at high doses in preclinical models,[8],safe
same,adverse side effects in dose escalation,healthy subjects,no significant adverse side effects
"O=C1[O][Pt]2([NH][C@@H]3CCCC[C@H]3[NH]2)[O]C1=O [oxaliplatin, Oxaliplatin]","anemia: level of red blood cell count, hemoglobin and hematocrit, chemotherapy agent alone",Animals [1],induced anemia
same,"hemoglobin level, chemotherapeutic agent alone",Animals [1],significantly diminished
same,"mechanosensitivity (percent positive response, paw withdrawal), chemotherapy alone, FIG. 12",Mice [9],increased
Epigallocatechin-3-gallate [EGCG],genotoxic or short term toxicity,rodents,no genotoxic or short term toxicity
same,adverse events or toxicity,dogs,no adverse events or toxicity
